This is an account of results in patent US12447117B2, “Composition and method of enhancing skin barrier using the same” (AMOREPACIFIC CORPORATION, priority 2018, dated 2025).

The structures appear in SMILES notation.

Experiment [1] deals with KRT10 (keratin 10) gene expression in normal human epidermal keratinocytes (NHEK). Put plainly: Expression level of keratinocyte differentiation marker KRT10 in UVB-irradiated NHEK (TAQMAN real-time PCR). In kind it is cell-based. Particulars: UVB 25 mJ/cm^2, 10 nM compound, harvested on fourth day of culture, versus UV-irradiated cells (FIG. 1). On the procedure:
(§1) Normal human epidermal keratinocytes (NHEK) were cultured in a 6-well plate incubator. 24 hours later, the normal human epidermal keratinocytes (NHEK) were cultured by replacing it with phosphate-buffered saline (PBS) and irradiating it with UVB (25 mJ/cm^2) and adding 10 nM of a compound represented by Chemical Formula 1-1 (Cayman Chemical) to the NHEK culture medium. On the fourth day of the culture, cells were harvested to separate RNA and synthesize cDNA through RT-PCR (a reverse transcriptional polymerase chain reaction), and the synthesized cDNA was used to perform TAQMAN™ real-time PCR and measure gene expression levels of a keratinocyte differentiation marker, KRT10, and a desmosome constituent factor, DSC1, and the results are shown in FIGS. 1 and 2.

In experiment [2] the test system is DSC1 (Desmocollin-1) gene expression in normal human epidermal keratinocytes (NHEK). Put plainly: Expression level of desmosome constituent factor DSC1 in UVB-irradiated NHEK (TAQMAN real-time PCR). In kind it is cell-based. Conditions: UVB 25 mJ/cm^2, 10 nM compound, harvested on fourth day of culture, versus UV-irradiated cells (FIG. 2). As for the experimental part:
as §1

For the compound `CC/C=C\C[C@H](O)/C=C/C=C\C=C\C=C\[C@@H](O)[C@@H](O)C/C=C\CCC(=O)O` [Chemical Formula 1-1], the “gene expression level of KRT10 (keratin 10)” value in experiment [1] is “increased again”. Besides, the “gene expression level of DSC1” value in experiment [2] is recorded as “increased again”.
